# Measured values taken from article PMC10935061 (Acta Pharmaceutica Sinica. B, 2023).
# Target: Nur77 (Homo sapiens, UniProt P22736)
# Assay: SPR
# Format: binding
# Nur77, sequence (P22736 360-598 limits assumed): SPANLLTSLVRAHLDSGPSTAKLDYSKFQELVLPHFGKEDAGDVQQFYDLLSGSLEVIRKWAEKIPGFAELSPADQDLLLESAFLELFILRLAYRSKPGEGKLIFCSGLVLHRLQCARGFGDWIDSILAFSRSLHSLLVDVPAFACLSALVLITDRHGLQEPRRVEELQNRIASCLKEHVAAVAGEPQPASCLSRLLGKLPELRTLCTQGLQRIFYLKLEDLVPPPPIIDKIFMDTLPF
structure (smiles),measurement,value
CCCCCCCC(=O)c1cc(OC)c(OC)c(OC)c1CC(=O)OCC [TMPA],Kd,0.38 µM
